In assay [1] the test system is prostate cancer cell line (LNCaP). In words: Cell cytotoxicity, MTT assay, LNCaP. Particulars: Homo sapiens, 72 h, three days incubation. It counts as cell-based. How it is done: (§1) Normal prostate cells (PREC, Cambrex East Rutherford N.J.), prostate cancer cell line (LNCaP, ATCC), PBL (peripheral blood leukocytes-buffy coat San Diego Blood Bank), and primary CLL cells were incubated for one to two days in RPMI-1640 and 10% FBS (fetal bovine serum). They were plated in 96-well plates at 100,000 cells/well. Titrated concentrations of the compound to be tested were added to the culture medium. The cells were incubated three days at 37° C., 5% CO2. Viability of the cells was assayed by standard MTT assay. Each drug concentration was done in duplicate. MTT assay: 10 μl of 12 mM 3,[4,5-dimethylthiazol-2-yl]-2,5-diphenyltetrazolium bromide (MTT) (SIGMA) was added to each well. The cells were incubated at 37° C., 5% CO2 for 4 hours. 100 μl of 20% SDS, 0.015M HCl was added to each well and the cells were incubated overnight. The plates were read at absorbance 595 nm.

Assay [2] relates to primary CLL cells. The assay can be described thus: Cell cytotoxicity, MTT assay, primary CLL cells. It counts as cell-based. Particulars: 72 h, three days incubation. The method, then: as §1
For orientation: Tetrazolium assays rely on reduction of a dye to a coloured formazan, in cell work by metabolically active cells.

The target of assay [3] is T1, Cyclooxygenase-2 (human recombinant, expressed in Sf9 cell) (Homo sapiens, UniProt P35354).
T1 construct: purchased Cayman 60122; host or cells: Sf9 cell
T1 sequence (P35354 18-604): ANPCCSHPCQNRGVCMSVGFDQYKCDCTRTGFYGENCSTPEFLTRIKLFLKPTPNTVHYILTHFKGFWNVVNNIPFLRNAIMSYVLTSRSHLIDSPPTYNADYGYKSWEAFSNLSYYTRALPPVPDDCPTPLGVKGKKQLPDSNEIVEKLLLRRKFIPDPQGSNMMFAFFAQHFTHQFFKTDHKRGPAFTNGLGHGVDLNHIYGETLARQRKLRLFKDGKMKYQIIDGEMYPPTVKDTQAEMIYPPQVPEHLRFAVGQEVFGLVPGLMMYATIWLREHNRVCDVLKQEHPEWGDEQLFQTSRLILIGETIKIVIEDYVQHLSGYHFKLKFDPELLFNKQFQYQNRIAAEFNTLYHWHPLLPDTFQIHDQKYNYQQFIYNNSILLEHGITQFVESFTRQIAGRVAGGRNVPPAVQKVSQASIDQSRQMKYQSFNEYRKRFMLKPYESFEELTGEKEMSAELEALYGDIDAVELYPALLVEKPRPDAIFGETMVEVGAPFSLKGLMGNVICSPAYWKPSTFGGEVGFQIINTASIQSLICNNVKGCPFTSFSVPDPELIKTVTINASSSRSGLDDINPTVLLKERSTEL
The assay can be described thus: Cox-2 assay: human recombinant cyclooxygenase-2, PGE2 by EIA. To be noted: human recombinant enzyme; compounds are screened at 10 μM. It counts as biochemical. How it is done: Test compound and/or vehicle is pre-incubated with 0.11 U cyclooxygenase-2, 1 mM reduced glutathione (GSH), 500 μM phenol and 1 μM hematin for 15 minutes at 37° C. The reaction is initiated by addition of 0.3 μM arachidonic acid as substrate in Tris-HCl pH 7.7 and terminated after a 5 minute incubation at 37° C. by addition of 1N HCl. Following centrifugation, substrate conversion to PGE2 is measured by an Amersham EIA kit. Compounds are screened at 10 μM. […] J. Physiol.

Assay [4] addresses T2, COX-1 (Homo sapiens, UniProt P23219).
T2 construct: endogenous in cells; host or cells: human platelets
The assay can be described thus: Cox-1 assay: PGE2 formation in human platelets. It counts as cell-based. To be noted: compounds are screened at 10 μM. How it is done:
Test compound and/or vehicle is incubated with human platelets (10^8/ml) containing the phospholipase inhibitor MLnFP (100 μM) for 15 minutes at 37° C. Arachidonic acid (100 μM) is then added for a further 15 minute incubation period. The reaction is stopped by addition of 1 N HCl and neutralized with 1N NaOH. PGE2 levels in the supernatant are determined using the Amersham EIA kit. […]

The subject of assay [5] is Daudi human Burkitt Lymphoma derived tumors. The assay can be described thus: Daudi lymphoma murine xenograft model, efficacy. Format: in vivo, male SCID mice. To be noted: for mean tumor volume at termination of the study: daily Monday to Friday for two weeks, control 1583 mm^3. The method, then:
Male SCID mice, 6-8 weeks of age, obtained from Simonsen Laboratories, Inc. (Gilroy, Calif.) were housed in groups of five.
The Daudi human Burkitt Lymphoma cells were obtained from American Type Culture Collection and were inoculated subcutaneously (1.0×10^7 cells/mouse) on the flanks of SCID mice. After the tumors reached approximately 100 mm^3 treatment was initiated.
Body weights and tumor volume of all mice were measured and recorded twice weekly. Tumors were measured in three dimensions and volume calculated using the formula: […]. Time for the tumors (days) to grow to 4× and 8× the initial volume at dosing were assessed. Study compounds were administered at 125 or 250 mg/kg/day (M-F) via oral gavage until the end of the study.
The efficacy of chlorambucil (2 and 3 mg/kg/d), (R-etodoalc) (400 mg/kg/d) and compound 47 (250 mg/kg/d), compound 26 (250 mg/kg/d), and compound 1 (125 mg/kg/d) against Daudi derived tumors in male SCID mice were studied. R-etodolac and compounds 1, 26 and 47 were prepared in sesame oil. Both chlorambucil (ip, 0.1 ml) and compounds of the invention (per os [p.o.], 0.31 ml) were dosed daily (Monday to Friday) for two weeks. SDX-101 (0.31 ml) was dosed p.o. daily until the end of the study. […] However, all treated mice recovered after Day 2 and maintained their weights. There was no body weight loss observed in other treatment groups. At termination of the study, the control group mean tumor volume was 1583 mm^3. The mean tumor volume of chlorambucil treated groups were 864 and 766 mm^3 with 2 and 3 mg/kg/d chlorambucil treatment, respectively. The mean tumor volume of R-etodolac and compounds 1, […] and 47 were 802, 996, 1011, and 1157 mm^3 with compounds 47, 36, 1 and R-etodolac treatment, respectively. […] At termination of the study, tumor samples along with liver, kidney, and spleen samples from each group were collected and fixed in 10% buffered formalin for histopathology.

T2 sequence (P23219 24-599): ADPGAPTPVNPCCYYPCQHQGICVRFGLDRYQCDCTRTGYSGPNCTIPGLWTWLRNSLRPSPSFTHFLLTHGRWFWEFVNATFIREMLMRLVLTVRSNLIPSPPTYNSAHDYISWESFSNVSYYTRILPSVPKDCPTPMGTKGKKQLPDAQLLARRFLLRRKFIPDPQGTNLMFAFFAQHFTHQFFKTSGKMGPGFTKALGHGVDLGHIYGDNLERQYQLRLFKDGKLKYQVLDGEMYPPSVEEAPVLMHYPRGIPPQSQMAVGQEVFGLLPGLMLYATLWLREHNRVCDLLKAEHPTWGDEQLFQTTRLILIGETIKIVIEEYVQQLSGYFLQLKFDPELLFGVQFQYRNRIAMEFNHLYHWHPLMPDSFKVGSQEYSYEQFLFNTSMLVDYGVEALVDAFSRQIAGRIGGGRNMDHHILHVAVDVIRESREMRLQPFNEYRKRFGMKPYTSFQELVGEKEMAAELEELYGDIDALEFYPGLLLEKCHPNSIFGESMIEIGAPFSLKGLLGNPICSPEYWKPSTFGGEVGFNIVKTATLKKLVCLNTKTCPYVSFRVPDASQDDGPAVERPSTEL

Broadly, the IC50 is the midpoint of a concentration-inhibition curve. Low values mean greater potency in that assay, high ones weaker potency in that assay. `CCC1(CCO)OCCc2c1[nH]c1c(C(C)C)cc(Br)cc21` (stereo not drawn) [Compound 54, 2-(6-BROMO-1-ETHYL-1,3,4,9-TETRAHYDRO-8-ISOPROPYLPYRANO[3,4-b]INDOL-1-yl)ETHANOL] showed an IC50 in assay [1] of 7 µM.

As for `CCc1cccc2c3c([nH]c12)C1(CCC(CO)CC1)OCC3` (stereo not drawn) [Compound 34, [8′-ETHYL-4′,9′-DIHYDRO-3′H-SPIRO(CYCLOHEXANE-1,1′-PYRANO[3,4-b]INDOL)-4-YL]-METHANOL], in assay [1], the IC50 was 20 µM.

Regarding `CCC1(CCO)OCCc2c1[nH]c1c(C(F)(F)F)cccc21` (stereo not drawn) [Compound 37, 2-(1-ETHYL-8-TRIFLUOROMETHYL-1,3,4,9-TETRAHYDRO-PYRANO[3,4-b]INDOL-1-YL)-ETHANOL], the 50% inhibitory concentration (IC50) in assay [1] was 60 µM.

Regarding `CCc1cccc2c3c([nH]c12)C(CCO)(C(C)C)OCC3` (stereo not drawn) [Compound 31, 2-(8-ETHYL-1-ISOPROPYL-1,3,4,9-TETRAHYDRO-PYRANO[3,4-b]INDOL-1-YL)-ETHANOL], the 50% inhibitory concentration (IC50) in assay [1] is 37 µM; in assay [2], 244 µM.

The inhibition is the percentage by which the read-out fell short of the control. Regarding `CCc1cc(-c2ccc(F)cc2)cc2c3c([nH]c12)C(CC)(CCO)OCC3` (stereo not drawn) [Compound 7], in assay [1], the 50% inhibitory concentration (IC50) is 12 µM. In addition, the inhibition at 10 µM in assay [3] was 99%; in assay [4] it was 94%.

As to `CCc1cccc2c3c([nH]c12)C(CCO)(c1ccccc1)OCC3` (stereo not drawn) [Compound 32, 2-(8-ETHYL-1-PHENYL-1,3,4,9-TETRAHYDRO-PYRANO[3,4-b]INDOL-1-YL)-ETHANOL], the half-inhibitory concentration (IC50) was 15 µM in assay [1] and 250 µM in assay [2].

Regarding `CCC1(CCO)OCCc2c1[nH]c1c(F)cccc21` (stereo not drawn) [Compound 26, 2-(1-ETHYL-8-FLUORO-1,3,4,9-TETRAHYDRO-PYRANO[3,4-b]INDOL-1-YL)-ETHANOL], the half-inhibitory concentration (IC50) in assay [1] was 95 µM.

On to `CCC1(CCO)OCCc2c1[nH]c1cc(F)ccc21` (stereo not drawn) [Compound 43, 2-(1-ETHYL-7-FLUORO-1,3,4,9-TETRAHYDRO-PYRANO[3,4-b]INDOL-1-YL)-ETHANOL], for which, in assay [1], the IC50 is 77 µM.

For `CCC1(CCO)OCCc2c1[nH]c1ccc(Cl)cc21` (stereo not drawn) [Compound 41, 2-(6-CHLORO-1-ETHYL-1,3,4,9-TETRAHYDRO-PYRANO[3,4-b]INDOL-1-YL)-ETHANOL], the IC50 in assay [1] came to 51 µM; in assay [2] it was 110 µM.

On to `CCC1(CCO)OCCc2c1[nH]c1ccc(OC)cc21` (stereo not drawn) [Compound 23, 2-(1-ETHYL-6-METHOXY-1,3,4,9-TETRAHYDRO-PYRANO[3,4-b]INDOL-1-YL)-ETHANOL], for which, in assay [1], the midpoint of inhibition, the IC50, lay at 70 µM.

Compound `CCC1(CCO)OCCc2c1[nH]c1c(C(C)C)cc(CCC(=O)O)cc21` (stereo not drawn) [Compound 56, 3-(1-ETHYL-1,3,4,9-TETRAHYDRO-1-(2-HYDROXYETHYL)-8-ISOPROPYLPYRANO[3,4-b]INDOL-6-YL)PROPANOIC ACID] showed an IC50 in assay [1] of 235 µM.

The compound `CCc1cc(-c2ccc(C)cc2)cc2c3c([nH]c12)C(CC)(CCO)OCC3` (stereo not drawn) [Compound 53] registered an IC50 in assay [1] of 11 µM. The inhibition at 10 µM was determined as 96% in assay [3] and 90% in assay [4].

`CCC1(CCO)OCCc2c1[nH]c1c(Br)cccc21` (stereo not drawn) [Compound 28, 2-(8-BROMO-1-ETHYL-1,3,4,9-TETRAHYDRO-PYRANO[3,4-b]INDOL-1-YL)-ETHANOL] returned an IC50 in assay [1] of 25 µM.

Turning to `CCc1cccc2c3c([nH]c12)C(CC)(CC(=O)NC)OCC3` (stereo not drawn) [Compound 33], the IC50 in assay [1] was 132 µM; in assay [2], 98 µM.

For the compound `CCc1c(Br)ccc2c3c([nH]c12)C(CC)(CCO)OCC3` (stereo not drawn) [Compound 51, 2-(7-BROMO-1,8-DIETHYL-1,3,4,9-TETRAHYDROPYRANO[3,4-b]INDOL-1-YL)ETHANOL], half-maximal inhibition in assay [1] (IC50) required 10 µM.

`O=C(O)CCCc1ccc(N(CCCl)CCCl)cc1` [Chlorambucil, chlorambucil, reference compound]: the “mean tumor volume at termination of the study” value is on record as 864 mm^3 in assay [5] (chlorambucil 2 mg/kg/d ip) and 766 mm^3 in assay [5] (chlorambucil 3 mg/kg/d ip). Moreover, the “4× Growth” value in assay [5] (time for the tumors to grow to 4× the initial volume at dosing, control 8.9 d) turned out to be 16 days. For the same compound, the “8× Growth” value in assay [5] (time for the tumors to grow to 8× the initial volume at dosing, control 14.5 d) stood at 21 days.

In turn, `CCCC1(CCO)OCCc2c1[nH]c1c(CC)cccc21` (stereo not drawn) [Compound 30, 2-(8-ETHYL-1-PROPYL-1,3,4,9-TETRAHYDRO-PYRANO[3,4-b]INDOL-1-YL)-ETHANOL] had an IC50 in assay [1] of 100 µM.

In assay [1], `CCc1cc(-c2cc3ccccc3s2)cc2c3c([nH]c12)C(CC)(CCO)OCC3` (stereo not drawn) [Compound 52] showed an IC50 of 9 µM. Moreover, the inhibition at 10 µM is 97% in assay [3] and 78% in assay [4].

Compound `CCOC(=O)CCc1cc(C(C)C)c2[nH]c3c(c2c1)CCOC3(CC)CCO` (stereo not drawn) [Compound 55, ETHYL 3-(1-ETHYL-1,3,4,9-TETRAHYDRO-1-(2-HYDROXYETHYL)-8-ISOPROPYLPYRANO[3,4-B]INDOL-6-YL)PROPANOATE] returned an IC50 in assay [1] of 18 µM.

In assay [1], `CCC1(CCO)OCCc2c1[nH]c1c(C(C)C)cc(CCCO)cc21` (stereo not drawn) [Compound 57, 3-(1-ETHYL-1,3,4,9-TETRAHYDRO-1-(2-HYDROXYETHYL)-8-ISOPROPYLPYRANO[3,4-B]INDOL-6-YL)PROPAN-1-OL] yielded an IC50 of 110 µM.

On to `CCC1(CCO)OCCc2c1[nH]c1ccccc21` (stereo not drawn) [Compound 22, (1-ETHYL-1,3,4,9-TETRAHYDRO-PYRANO[3,4-b]INDOL-1-YL)-ETHANOL], for which half-maximal inhibition in assay [1] (IC50) required 163 µM.

In the case of `CCC1(CCO)OCCc2c1[nH]c1ccc(F)cc21` (stereo not drawn) [Compound 40, 2-(1-ETHYL-6-FLUORO-1,3,4,9-TETRAHYDRO-PYRANO[3,4-b]INDOL-1-YL)-ETHANOL], the IC50 turned out to be 80 µM in assay [1] and 185 µM in assay [2].

In the case of `CCc1cccc2c3c([nH]c12)C(CC)(CC(=O)N(C)C)OCC3` (stereo not drawn) [Compound 48], the IC50 in assay [1] came to 60 µM; in assay [2] it was 240 µM.

For `CCC1(CCO)OCCc2c1[nH]c1cc(Cl)ccc21` (stereo not drawn) [Compound 44, 2-(7-CHLORO-1-ETHYL-1,3,4,9-TETRAHYDRO-PYRANO[3,4-b]INDOL-1-YL)-ETHANOL], in assay [1], half-maximal inhibition (IC50) was put at 60 µM.

Turning to `CCc1cc(-c2ccc3c(c2)OCO3)cc2c3c([nH]c12)C(CC)(CCO)OCC3` (stereo not drawn) [Compound 9], the half-inhibitory concentration (IC50) in assay [1] was found to be 10 µM. Also, the inhibition at 10 µM in assay [3] came to 90%; in assay [4], 88%.
